Measured values published in patent US9486506B2 (Novo Nordisk A/S, priority 2011, dated 2016).
Numbered stars: 1 amine (or outer) side, 2 acyl side, 3 side chain; on linkers, the order of the positions; unused ones are H or OH. Side chains are listed from the residue outwards. Peptide text beside a SMILES is read from it. * marks the point of attachment. C18 diacid = O=C(O)CCCCCCCCCCCCCCCCC(=O)*; C16 diacid = O=C(O)CCCCCCCCCCCCCCC(=O)*; γGlu = O=C(O)[C@H](CCC(=O)[*:2])N[*:1]; AEEA = NCCOCCOCC(=O)O

Key:
glucagon receptor = molecular target: T1, glucagon receptor (Homo sapiens, UniProt P47871); test: Assay (I) Glucagon activity (cAMP biosensor, FLIPR); type: cell-based
T1 construct: expressed in transfected cells
T1 sequence (P47871 26-477): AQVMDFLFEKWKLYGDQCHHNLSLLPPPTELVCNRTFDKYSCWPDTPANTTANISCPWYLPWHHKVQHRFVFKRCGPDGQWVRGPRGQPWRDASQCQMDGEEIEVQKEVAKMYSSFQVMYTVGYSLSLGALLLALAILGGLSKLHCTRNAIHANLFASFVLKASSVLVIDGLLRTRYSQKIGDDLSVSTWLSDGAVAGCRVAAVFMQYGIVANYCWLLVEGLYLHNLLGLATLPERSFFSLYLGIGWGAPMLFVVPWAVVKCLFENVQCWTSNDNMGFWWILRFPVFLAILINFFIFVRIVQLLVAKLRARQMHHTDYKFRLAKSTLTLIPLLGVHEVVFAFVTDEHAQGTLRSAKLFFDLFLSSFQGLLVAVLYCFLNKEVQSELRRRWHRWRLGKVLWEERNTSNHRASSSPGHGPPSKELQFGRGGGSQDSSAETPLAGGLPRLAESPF

[1] = Assay (X) Chemical stability assessment by RP-UPLC; type: physicochemical; conditions: pH 8.15, 14 days at 37° C. vs 5° C., 333 μM

| SMILES | EC50 (glucagon receptor) [nM] | Chemical stability [Purity loss/14 days 37 C.] [1] [%] |
| --- | --- | --- |
| CC(C)C[C@H](NC(=O)[C@H](Cc1ccc(O)cc1)NC(=O)[C@H](CCCCN)NC(=O)[C@H](CO)NC(=O)[C@H](Cc1ccc(O)cc1)NC(=O)[C@H](CC(=O)O)NC(=O)[C@H](CO)NC(=O)[C@@H](NC(=O)[C@H](Cc1ccccc1)NC(=O)[C@@H](NC(=O)CNC(=O)[C@H](Cc1c[nH]cn1)NC(=O)[C@H](CO)NC(=O)[C@@H](N)Cc1c[nH]cn1)[C@@H](C)O)[C@@H](C)O)C(=O)N[C@@H](CC(=O)O)C(=O)N[C@@H](CCC(=O)O)C(=O)N[C@@H](CCCNC(=N)N)C(=O)N[C@@H](CCCNC(=N)N)C(=O)N[C@@H](C)C(=O)N[C@@H](CCCCN)C(=O)N[C@@H](CC(=O)O)C(=O)N[C@@H](Cc1ccccc1)C(=O)N[C@H](C(=O)N[C@@H](CCCCNC(=O)CC[C@H](NC(=O)CC[C@H](NC(=O)COCCOCCNC(=O)COCCOCCNC(=O)CC[C@H](NC(=O)CCCCCCCCCCCCCCCCC(=O)O)C(=O)O)C(=O)O)C(=O)O)C(=O)N[C@@H](Cc1c[nH]c2ccccc12)C(=O)N[C@@H](CC(C)C)C(=O)N[C@@H](CC(C)C)C(=O)N[C@@H](CO)C(=O)N[C@H](C(=O)O)[C@@H](C)O)C(C)C [Example 4, N^ε24-[(4S)-4-carboxy-4-[[(4S)-4-carboxy-4-[[2-[2-[2-[[2-[2-[2-[[(4S)-4-carboxy-4-(17-carboxyheptadecanoylamino)butanoyl]amino]ethoxy]ethoxy]acetyl]amino]ethoxy]ethoxy]acetyl]amino]butanoyl]amino]butanoyl]-[His^3,Glu^16,Lys^20,Lys^24,Leu^27,Ser^28]-Glucagon] (H-HSHGTFTSDYSKYLDERRAKDFVK([γGlu-γGlu-AEEA-AEEA-γGlu-C18 diacid])WLLST-OH) | 0.237 | 7.5 |
| CC(C)C[C@H](NC(=O)[C@H](Cc1c[nH]c2ccccc12)NC(=O)[C@H](CCCCNC(=O)CC[C@H](NC(=O)CC[C@H](NC(=O)COCCOCCNC(=O)COCCOCCNC(=O)CC[C@H](NC(=O)CCCCCCCCCCCCCCCCC(=O)O)C(=O)O)C(=O)O)C(=O)O)NC(=O)[C@@H](NC(=O)[C@H](Cc1ccccc1)NC(=O)[C@H](CC(=O)O)NC(=O)[C@H](CCC(N)=O)NC(=O)[C@H](C)NC(=O)[C@H](CCCNC(=N)N)NC(=O)[C@H](CCCNC(=N)N)NC(=O)[C@@H](NC(=O)[C@H](CC(=O)O)NC(=O)[C@H](CC(C)C)NC(=O)[C@H](Cc1ccc(O)cc1)NC(=O)[C@H](CCCNC(=N)N)NC(=O)[C@H](CO)NC(=O)[C@H](Cc1ccc(O)cc1)NC(=O)[C@H](CC(=O)O)NC(=O)[C@H](CO)NC(=O)[C@@H](NC(=O)[C@H](Cc1ccccc1)NC(=O)[C@@H](NC(=O)CNC(=O)[C@H](CCC(N)=O)NC(=O)[C@H](CO)NC(=O)[C@@H](N)Cc1c[nH]cn1)[C@@H](C)O)[C@@H](C)O)[C@@H](C)O)C(C)C)C(=O)N[C@@H](CCC(=O)O)C(=O)N[C@@H](CO)C(=O)N[C@H](C(=O)O)[C@@H](C)O [Example 44, N^ε24-[(4S)-4-carboxy-4-[[(4S)-4-carboxy-4-[[2-[2-[2-[[2-[2-[2-[[(4S)-4-carboxy-4-(17-carboxyheptadecanoylamino)butanoyl]amino]ethoxy]ethoxy]acetyl]amino]ethoxy]ethoxy]acetyl]amino]butanoyl]amino]butanoyl]-[Arg12,Thr16,Lys24,Glu27,Ser28]-Glucagon] (H-HSQGTFTSDYSRYLDTRRAQDFVK([γGlu-γGlu-AEEA-AEEA-γGlu-C18 diacid])WLEST-OH) | 0.176 | 10.5 |
| CC(C)C[C@H](NC(=O)[C@H](Cc1ccc(O)cc1)NC(=O)[C@H](CCCNC(=N)N)NC(=O)[C@H](CO)NC(=O)[C@H](Cc1ccc(O)cc1)NC(=O)[C@H](CC(=O)O)NC(=O)[C@H](CO)NC(=O)[C@@H](NC(=O)[C@H](Cc1ccccc1)NC(=O)[C@@H](NC(=O)CNC(=O)[C@H](CCC(N)=O)NC(=O)[C@H](CO)NC(=O)[C@@H](N)Cc1c[nH]cn1)[C@@H](C)O)[C@@H](C)O)C(=O)N[C@@H](CC(=O)O)C(=O)N[C@@H](CCC(=O)O)C(=O)N[C@@H](CCCNC(=N)N)C(=O)N[C@@H](CCCNC(=N)N)C(=O)N[C@@H](C)C(=O)N[C@@H](CCC(N)=O)C(=O)N[C@@H](CC(=O)O)C(=O)N[C@@H](Cc1ccccc1)C(=O)N[C@H](C(=O)N[C@@H](CCCCNC(=O)CC[C@H](NC(=O)CC[C@H](NC(=O)COCCOCCNC(=O)COCCOCCNC(=O)CC[C@H](NC(=O)CCCCCCCCCCCCCCCCC(=O)O)C(=O)O)C(=O)O)C(=O)O)C(=O)N[C@@H](Cc1c[nH]c2ccccc12)C(=O)N[C@@H](CC(C)C)C(=O)N[C@@H](CC(C)C)C(=O)N[C@@H](CO)C(=O)N[C@H](C(=O)O)[C@@H](C)O)C(C)C [Example 42, N^ε24-[(4S)-4-carboxy-4-[[(4S)-4-carboxy-4-[[2-[2-[2-[[2-[2-[2-[[(4S)-4-carboxy-4-(17-carboxyheptadecanoylamino)butanoyl]amino]ethoxy]ethoxy]acetyl]amino]ethoxy]ethoxy]acetyl]amino]butanoyl]amino]butanoyl]-[Arg12,Glu16,Lys24,Leu27,Ser28]-Glucagon] (H-HSQGTFTSDYSRYLDERRAQDFVK([γGlu-γGlu-AEEA-AEEA-γGlu-C18 diacid])WLLST-OH) | 0.153 | 7.2 |
| CC[C@H](C)[C@H](NC(=O)[C@H](CC(=O)O)NC(=O)[C@H](CC(C)C)NC(=O)[C@H](Cc1ccc(O)cc1)NC(=O)[C@H](CCCCN)NC(=O)[C@H](CO)NC(=O)[C@H](Cc1ccc(O)cc1)NC(=O)[C@H](CC(=O)O)NC(=O)[C@H](CO)NC(=O)[C@@H](NC(=O)[C@H](Cc1ccccc1)NC(=O)[C@@H](NC(=O)CNC(=O)[C@H](CCC(N)=O)NC(=O)[C@H](CO)NC(=O)[C@@H](N)Cc1c[nH]cn1)[C@@H](C)O)[C@@H](C)O)C(=O)N[C@@H](CCCNC(=N)N)C(=O)N[C@@H](CCCNC(=N)N)C(=O)N[C@@H](C)C(=O)N[C@@H](CCC(N)=O)C(=O)N[C@@H](CC(=O)O)C(=O)N[C@@H](Cc1ccccc1)C(=O)N[C@H](C(=O)N[C@@H](CCCCNC(=O)CC[C@H](NC(=O)CC[C@H](NC(=O)CC[C@H](NC(=O)CC[C@H](NC(=O)CCCCCCCCCCCCCCCCC(=O)O)C(=O)O)C(=O)O)C(=O)O)C(=O)O)C(=O)N[C@@H](Cc1c[nH]c2ccccc12)C(=O)N[C@@H](CC(C)C)C(=O)N[C@@H](CC(C)C)C(=O)N[C@@H](CO)C(=O)N[C@H](C(N)=O)[C@@H](C)O)C(C)C [Example 75, N^ε24-[(4S)-4-carboxy-4-[[(4S)-4-carboxy-4-[[(4S)-4-carboxy-4-[[(4S)-4-carboxy-4-(17-carboxyheptadecanoylamino)butanoyl]amino]butanoyl]amino]butanoyl]amino]butanoyl]-[Ile16,Lys24,Leu27,Ser28]-Glucagon amide] | 0.402 | 3.6 |
| CC(C)C[C@H](NC(=O)[C@H](Cc1ccc(O)cc1)NC(=O)[C@H](CCCNC(=N)N)NC(=O)[C@H](CO)NC(=O)[C@H](Cc1ccc(O)cc1)NC(=O)[C@H](CC(=O)O)NC(=O)[C@H](CO)NC(=O)[C@@H](NC(=O)[C@H](Cc1ccccc1)NC(=O)[C@@H](NC(=O)CNC(=O)[C@H](CCC(N)=O)NC(=O)[C@H](CO)NC(=O)[C@@H](N)Cc1c[nH]cn1)[C@@H](C)O)[C@@H](C)O)C(=O)N[C@@H](CCC(=O)O)C(=O)N[C@@H](CO)C(=O)N[C@@H](CCCNC(=N)N)C(=O)N[C@@H](CCCNC(=N)N)C(=O)N[C@@H](C)C(=O)N[C@@H](CCC(N)=O)C(=O)N[C@@H](CC(=O)O)C(=O)N[C@@H](Cc1ccccc1)C(=O)N[C@H](C(=O)N[C@@H](CCCCNC(=O)CC[C@H](NC(=O)CC[C@H](NC(=O)COCCOCCNC(=O)COCCOCCNC(=O)CC[C@H](NC(=O)CCCCCCCCCCCCCCC(=O)O)C(=O)O)C(=O)O)C(=O)O)C(=O)N[C@@H](Cc1c[nH]c2ccccc12)C(=O)N[C@@H](CC(C)C)C(=O)N[C@@H](CC(C)C)C(=O)N[C@@H](CO)C(=O)N[C@H](C(=O)O)[C@@H](C)O)C(C)C [Example 70, N^ε24-[(4S)-4-carboxy-4-[[(4S)-4-carboxy-4-[[2-[2-[2-[[2-[2-[2-[[(4S)-4-carboxy-4-(15-carboxypentadecanoylamino)butanoyl]amino]ethoxy]ethoxy]acetyl]amino]ethoxy]ethoxy]acetyl]amino]butanoyl]amino]butanoyl]-[Arg12,Glu15,Lys24,Leu27,Ser28]-Glucagon] (H-HSQGTFTSDYSRYLESRRAQDFVK([γGlu-γGlu-AEEA-AEEA-γGlu-C16 diacid])WLLST-OH) | 0.14 | 7.6 |
| CC(C)C[C@H](NC(=O)[C@H](Cc1ccc(O)cc1)NC(=O)[C@H](CCCNC(=N)N)NC(=O)[C@H](CO)NC(=O)[C@H](Cc1ccc(O)cc1)NC(=O)[C@H](CC(=O)O)NC(=O)[C@H](CO)NC(=O)[C@@H](NC(=O)[C@H](Cc1ccccc1)NC(=O)[C@@H](NC(=O)CNC(=O)[C@H](CCC(N)=O)NC(=O)[C@H](CO)NC(=O)[C@@H](N)Cc1c[nH]cn1)[C@@H](C)O)[C@@H](C)O)C(=O)N[C@@H](CCC(=O)O)C(=O)N[C@@H](CO)C(=O)N[C@@H](CCCNC(=N)N)C(=O)N[C@@H](CCCNC(=N)N)C(=O)N[C@@H](C)C(=O)N[C@@H](CCC(N)=O)C(=O)N[C@@H](CCC(=O)O)C(=O)N[C@@H](Cc1ccccc1)C(=O)N[C@H](C(=O)N[C@@H](CCCCNC(=O)CC[C@H](NC(=O)CC[C@H](NC(=O)CC[C@H](NC(=O)CC[C@H](NC(=O)CCCCCCCCCCCCCCCCC(=O)O)C(=O)O)C(=O)O)C(=O)O)C(=O)O)C(=O)N[C@@H](Cc1c[nH]c2ccccc12)C(=O)N[C@@H](CC(C)C)C(=O)N[C@@H](CC(C)C)C(=O)N[C@@H](CO)C(=O)N[C@H](C(=O)O)[C@@H](C)O)C(C)C [Example 51, N^ε24-[(4S)-4-carboxy-4-[[(4S)-4-carboxy-4-[[(4S)-4-carboxy-4-[[(4S)-4-carboxy-4-(17-carboxyheptadecanoylamino)butanoyl]amino]butanoyl]amino]butanoyl]amino]butanoyl]-[Arg12,Glu15,Glu21,Lys24,Leu27,Ser28]-Glucagon] (H-HSQGTFTSDYSRYLESRRAQEFVK([γGlu-γGlu-γGlu-γGlu-C18 diacid])WLLST-OH) | 0.148 | 5.7 |
